1 substance from patent US12194021B2, “Modified herbal compositions for neuromodulation” (University of Southern California, priority 2021, dated 2025) can be followed below.

Holding throughout (type): in vivo
The test system of experiment [1] is TG-mice. In words: Novel context recognition (NCR). The note with it: 1 mg/kg oral, 3 months, untreated TG 49.2±2.6%. As for the experimental part:
Novel context recognition (NCR): Day 1-3 was Habituation (once/day). Two contexts (containers) A and B with similar field area were very different in shape. Context A was a rectangular, Context B was a circular container. The containers were open at the top with bedding to minimize stress and with video camera on top to record animal behavior. Each animal was placed in Context A without toys for 5 min, then back to home cage for 30 min. Then the animal was placed in Context B without toys for 5 min.
Day 4 was for Familiarization: Two different sets of toys were used as the familiar objects referred to as FO1 and FO2 respectively. […]
Day 5 (24 h from familiarization): Retention Trials was performed to determine the memory retention of each animal for familiarized objects. […] The test was videotaped and analyzed offline. The time spent exploring the familiar object (FO1) and exchanged object (FO2) were calculated where exploration equals touching the object with nose or paws or sniffing within 1.5 cm of the object. […]
Mice were divided into four groups: (1) C57BL/6 wt male mice were treated with oral administration of 2% sucrose; (2) C57B1/6 wt male mice with oral administration of 1 mg/kg D-P in 2% sucrose; (3) TG-mice with oral administration of 2% sucrose; and (4) TG-mice with 1 mg/kg D-P in 2% sucrose. […] Next, we evaluated NCR (FIG. 3C). The RI was calculated.

The next experiment concerns gephyrin. The experiment can be described thus: Gephyrin level measurement (Western blot, hippocampus and cortex). The note with it: TG-mice, 1 mg/kg oral daily. On the procedure:
3) Gephyrin level measurement: Gephyrin amounts in control (group housing), AD, and AD+D-P group were determined. All mice brains were taken and prepared for assays. SDS-PAGE and Western blot analysis. Proteins were separated on SDS-polyacrylamide gels (Sigma) using the Bio-Rad Mini-Protean 3 cell system. Proteins were transferred on a polyvinylidene difluoride (PDVF) membrane (Sigma) and blocked with 4% non-fat dry milk. Blots were incubated overnight at 4° C. with rabbit anti-gephyrin (Santa Cruz, 1:200) and mouse anti-β-actin (Sigma, 1:1000), followed by HRP-conjugated secondary antibodies (1:5000) for two hours at room temperature. Bands were detected using ECL detection kit (Sigma) and exposed to X-ray films. Bands were analyzed by densitometry using ImageQuant5.2 (Molecular Dynamics), normalized to the corresponding β-actin signal and compared.
Gephyrin is the key scaffolding protein that organizes the inhibitory postsynaptic receptor density involving GABAAR clustering at postsynaptic sites. Gephyrin not only has a structural function at GABAergic synaptic sites, but also plays a crucial role in synaptic dynamics. Therefore, we examined the protein levels of gephyrin in the hippocampus (left) and cortex (right) in the TG-mice and in D-P treated TG-mice compared to wt control. […]
Background: In western blotting, separated proteins are transferred to a membrane and probed.

The test system of experiment [2] is TG-mice. The experiment can be described thus: Open field test of locomotor activity. The note with it: 3 months. As for the experimental part: 5) Locomotor assay: To measure the locomotor activity, the numbers of total entries were measured for each animal. Statistical differences were determined using ANOVA. These experiments will determine the effects of D-P on anxiety levels.
DHM-Piperidine Complex (D-P) can replicate DHM effects to improve behavioral impairment in TG-mice. We examined the effect of D-P on AD symptom-like behavior in aged TG2576 mice compared with age-matched wt mice. Mice were divided into three groups: (1) C57BL/6 wt male mice (2% sucrose, oral administration), (2) TG-mice (2% sucrose, oral administration), and (3) TG-mice with D-P (2 mg/kg in 2% sucrose), respectively. After 3 months of treatment, mice were examined with behavioral assays.
Locomotor activity was assayed with open field test. Running distance is one of the parameters quantifying locomotor activity (FIG. 4A). Wt control mice ran 882±55 cm during 10 min. TG-mice ran a much shorter distance (255±12 cm), while the running distance of TG-mice treated with D-P increased to 611±99 cm. […] D-P treatment in TG-mice increased rearing (19.3±2.0 times), times to explore the center (1.3±2.0 times), and duration to stay at the center (0.13±0.03 min). […] Daily oral D-P treatment for TG-mice improves locomotor activity and increased exploring activity, an instinct of animals. Anxiety was assayed with the EPM (FIG. 4D). The wt control spent 48.5±7.5% of total time in open arms and 33.5±3.2% in closed arms.

As to “piperidin-1-ium (2R,3R)-2-(3,4-dihydroxy-5-oxidophenyl)-3,5-dihydroxy-4-oxochroman-7-olate [D-P]”, the “Recognition Index (RI), novel context” value in the experiment with TG-mice [1] is listed as “reversed the RI in TG-mice”. Also, the values for the gephyrin levels entry with gephyrin (1 month) and in the experiment on gephyrin (3 months) were “partly recovered” and “restored to control levels”, respectively. The same substance came in with a running distance in the experiment with TG-mice [2] (2 mg/kg in 2% sucrose, 10 min, untreated TG 255±12) of 611±99 cm. Further, in the experiment on TG-mice [2] (2 mg/kg, untreated TG 0.02±0.01), the “duration to stay at the center” value came to 0.13 ± 0.03 min. Besides, the “times to explore the center” value in the experiment with TG-mice [2] (2 mg/kg, untreated TG 0.2±0.1) is listed as 1.3±2.0 times. In the experiment with TG-mice [2] (2 mg/kg, untreated TG 12.5±2.1), this substance yielded a rearing of 19.3±2.0 times.
